The test system of one assay is wild type SARS-CoV. The format is cell-based. Particulars: single dose of 500 μg/ml at 1 hr pi.
The test system of the next assay is icSARS-CoV. The format is cell-based, SARS-CoV. Particulars: single dose of 500 μg/ml at 1 hr pi.

Consider `CCOC(=O)[C@H]1O[C@@H]1C(=O)N[C@@H](CC(C)C)C(=O)NCCC(C)C` (relative stereo) [E64-d, {2S, 3S}-trans-epoxysuccinyl-L-leucylamido-3-methylbutane ethyl ester], for which the “viral CPE and viral antigen expression” value in the assay with wild type SARS-CoV and in the assay with icSARS-CoV was “almost complete elimination” each time. Besides, the “reduction in virus yield” value in the assay on wild type SARS-CoV (24 and 48 hrs postinfection) was 3-4 log; in the assay on icSARS-CoV (24 and 48 hrs postinfection), 3-4 log.

The values are drawn from patent US7618802B2 (priority 2003, dated 2009).
